Test results reported in US6376753B1, “PURIFIED CYTOCHROME P450 POLYPEPTIDE CYP76B1 FROM HELIANTHUS TUBEROSUS AND ITS APPLICATIONS AS BIOCATALYST IN PARTICULAR FOR THE DEGRADATION OF ENVIRONMENTAL POLLUTANTS AND FOR ALTERING THE RESISTANCE OF PLANTS SENSITIVE TO PHENYLUREA FAMILY OF HERBICIDES” (priority 1997, dated 2002).
Read-outs that look alike come from different tables or passages of the source.

Tests used:
CYP76B1 [1] = target: T1, CYP76B1 (Helianthus tuberosus, UniProt O23976); experiment: CYP76B1-dependent metabolism (O-/N-dealkylation) in microsomes of transformed yeast; conditions: for metabolite detection for endogenous molecules: transformed WAT11 yeast microsomes; for conversion / dealkylation by CYP76B1: transformed yeast microsomes, NADPH; for Activity: + NADPH; for turnover of the dealkylation: for phenylureas first dealkylation
T1 sequence (O23976 1-490): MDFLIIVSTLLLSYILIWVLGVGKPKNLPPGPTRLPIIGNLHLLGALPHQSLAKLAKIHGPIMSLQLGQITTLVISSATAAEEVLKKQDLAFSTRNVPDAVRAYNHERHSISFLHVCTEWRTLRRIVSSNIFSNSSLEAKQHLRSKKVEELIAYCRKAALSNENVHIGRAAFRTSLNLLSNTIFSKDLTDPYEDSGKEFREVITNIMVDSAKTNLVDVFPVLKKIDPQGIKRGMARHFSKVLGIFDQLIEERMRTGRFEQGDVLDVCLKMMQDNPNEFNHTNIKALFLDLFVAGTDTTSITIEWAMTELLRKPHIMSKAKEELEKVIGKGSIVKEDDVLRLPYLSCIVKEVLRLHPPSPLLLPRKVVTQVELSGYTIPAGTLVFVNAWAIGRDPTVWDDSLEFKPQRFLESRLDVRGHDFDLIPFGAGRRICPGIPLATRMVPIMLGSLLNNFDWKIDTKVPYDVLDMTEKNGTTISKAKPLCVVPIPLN
Method: BamHI and EcoRI sites were introduced by PCR just upstream of the ATG and downstream of the stop codon of the CYP76B1 coding sequence, using the primers 5′-[…] (sense) 5′-[…] (reverse) (SEQ ID NO 3 and SEQ ID NO 4 respectively). The PCR mixture was preheated for 2 min at 92° C. before addition of 1 unit of Pfu DNA polymerase (Stratagene). After 3 min additional heating at 92° C., 30 cycles of amplification were carried out as follows 1 min denaturation at 92° C., 1 min annealing at 52° C., 2 min extension at 72° C. The reaction was completed by 10 min extension at 72° C. After BamHI/EcoRI digestion, the 1470 bp coding sequence was inserted into the vector pYeDP60 (32). Transformation of Saccharomyces cerevisiae W(R), WAT11 and WAT21, and yeast growth were conducted according to Pompon et al. (32). Yeast microsomes were prepared as described in Pierrel et al. (33) with addition of 1% SAB, 2 mM β-mercaptoethanol, 10 mM sodium disulfite and 1 mM PMSF to the extraction buffer. When indicated, 0.5 mM δ-aminolevulinic acid methyl ester (Sigma) was added to the induction medium, or cells were stored at 4° C. for 24 h before preparation of the microsomes.
(§1) Spectrophotometric measurements of P450 content and substrate binding were performed as in (Gabriac et al., 1991) and SDS-PAGE was performed as in Gabriac et al. (34). Gels were stained with Coomassie Blue R-250. Alkoxycoumarins and alkoxyresorufins O-dealkylation was measured by fluorometry (Werck-Reichhart et al., 1990). The data are means ± S.D. of triplicates.
The conversion of other molecules was assayed by TLC or HPLC analysis of polar metabolites formed from radiolabeled compounds (Cabello-Hurtado et al., 1998a, b). NADPH-cytochrome c reductase was assayed according to (Benveniste et al., 1986). Kinetic data were fitted using the nonlinear regression program […] (Duggleby, 1984).
10 μL of non-immune serum or of serum raised against purified ECOD fraction were preincubated 2 min at room temperature with 10 μL of microsomes before addition of the reaction mix. n.d.: not detectable.
Conversion was estimated from the sum of the two polar metabolites detected after TLC analysis. Data are means + S.D. of two to four determinations. n.d.: not detected.
CYP76B1 concentrations in the MCOD, ECOD, MROD and EROD fluorometric assays were 1.5 nM or 2.1 nM, depending on the coexpressed ATR1 or yeast reductases. In the CTUDM assays, CYP76B1 concentrations were 1.7 nM (ATR1) and 8 nM (yeast), respectively. It was 12 nM for the determination of the catalytic parameters of monodemethyl-CTUDM, and 1.7 nM (ATR1) or 20 nM (yeast) in the IPUDM assays. Products were quantified by direct TLC analysis of 100 μL of the acidified incubation medium after 6 min incubation at 30° C. for the CTUDM and IPUDM assays, and after 9 min incubation for the monodemethyl-CTUDM.

CYP76B1 [2] = target: T1, CYP76B1; experiment: biochemical; conditions: for ΔAmax × 10^−3: at saturating ligand concentration
Method: as §1
The binding of substrates into the catalytic site of a P450 usually induces a shift of its maximum of absorbance, redox potential and iron spin state (Raag and Poulos, 1989) resulting from the displacement of the water sixth ligand of the heme iron. It is easily detected by differential spectrophotometry as a so-called type I spectrum with a peak at 390 nm and a trough at 420 nm (Jefcoate, 1978). The variation of the differential absorbance ΔA390-420 versus substrate concentration allows the calculation of an apparent dissociation constant (Ks). A high ΔAmax induced by the ligand is usually an indication of correct positioning for catalysis.
CYP76B1 was 60 nM in the assays. Difference spectra were recorded after the addition of increasing concentrations of ligands to the sample cuvette. An equal volume of the herbicide solvent (DMSO) was added to the reference. Ks and ΔAmax at saturating ligand concentration were calculated from the double-reciprocal plots of ΔA(390-420 nm) versus substrate concentrations.

[3] = system: 7-methoxyresorufin O-dealkylase activity; experiment: Induction of 7-methoxyresorufin O-demethylase activity in tuber slices; type: cell-based, Helianthus tuberosus; conditions: 48 hours of treatment
Method: Slices of dormant tuber of Helianthus tuberosus were placed under survival conditions in oxygenated distilled water and stirred with a current of compressed air in the presence of various metals or organic compounds (effectors).
A control was performed with DMSO alone.

[4] = read-out: KS (apparent dissociation constant), CYP76B1 60 nM, ΔA(390-420 nm) double-reciprocal plots
[5] = coexpressed reductase ATR1 (WAT11)
[6] = coexpressed yeast reductase (W(R))

Compound: CCCCC/C=C\C/C=C\CCCCCCCC(=O)O [linoleic, linoleic acid]
- metabolite detection for endogenous molecules (CYP76B1 [1]): No metabolite

Compound: O=C(O)c1ccccc1 [benzoate, Benzoic acid]
- metabolite detection for endogenous molecules (CYP76B1 [1]): No metabolite

Compound: CON(C)C(=O)Nc1ccc(Br)c(Cl)c1 [Chlorbromuron]
- Kd (CYP76B1 [2]): 5.3 µM
- ΔAmax × 10^−3 (CYP76B1 [2]; CYP76B1 60 nM): 6.7 × 10^−3
- conversion / dealkylation by CYP76B1 (CYP76B1 [1]): dealkylates

Compound: Cl[C@H]1[C@H](Cl)[C@@H](Cl)[C@@H](Cl)[C@H](Cl)[C@H]1Cl [lindane]
- induction of 7-methoxyresorufin O-dealkylase activity [3]: very strongly induced

Compound: Metoxuron
- ΔAmax × 10^−3 (CYP76B1 [2]; CYP76B1 60 nM): 6.1 × 10^−3
- Kd (CYP76B1 [2]; [4]): 117 µM

Compound: CNC(=O)Nc1ccc(C)c(Cl)c1 [monodemethyl-chlortoluron]
- Kcat (CYP76B1 [1]; [5]): 0.767 s⁻¹
- Km (CYP76B1 [1]; [5]): 81 µM
- conversion / dealkylation by CYP76B1 (CYP76B1 [1]): actively dealkylated

Compound: CCCCCCCCCC(=O)O [capric, capric acid]
- metabolite detection for endogenous molecules (CYP76B1 [1]): No metabolite

Compound: O=C(O)/C=C/c1ccccc1 [cinnamate, trans-Cinnamic acid]
- metabolite detection for endogenous molecules (CYP76B1 [1]): No metabolite

Compound: c1ccc2c(c1)cc1ccc3cccc4ccc2c1c34 [benzo(a)pyrene]
- induction of 7-methoxyresorufin O-dealkylase activity [3]: very strongly induced

Compound: CCCCCCCCCCCC(=O)O [lauric, lauric acid]
- metabolite detection for endogenous molecules (CYP76B1 [1]): No metabolite

Compound: O=C1OC(=O)c2cccc3cccc1c23 [naphthalic anhydride, 1,8-Naphthalic anhydride]
- induction of 7-methoxyresorufin O-dealkylase activity [3]: very strongly induced

Compound: CCOc1ccc2nc3ccc(=O)cc-3oc2c1 [7-ethoxyresorufin]
- Activity (CYP76B1 [1]; W(R) strain): 5.1 pkat mg-1 protein
- turnover of the dealkylation (CYP76B1 [1]; W(R) strain): 6 min⁻¹
- Activity (CYP76B1 [1]; WAT11 strain): 11.6 pkat mg-1 protein
- turnover of the dealkylation (CYP76B1 [1]; WAT11 strain): 22 min⁻¹
- Kcat (CYP76B1 [1]; [5]): 0.467 s⁻¹
- Km (CYP76B1 [1]; [5]): 0.17 µM

Compound: CCCCC(CC)COC(=O)c1ccccc1C(=O)OCC(CC)CCCC (stereo not shown) [diethylhexylphthalate]
- induction of 7-methoxyresorufin O-dealkylase activity [3]: very strongly induced

Compound: CCCCCCCCCCCCCCCC(=O)O [palmitic, palmitic acid]
- metabolite detection for endogenous molecules (CYP76B1 [1]): No metabolite

Compound: COc1c2occc2cc2ccc(=O)oc12 [8-methoxypsoralen]
- induction of 7-methoxyresorufin O-dealkylase activity [3]: very strongly induced

Compound: mercury
- induction of 7-methoxyresorufin O-dealkylase activity [3]: very strongly induced

Compound: COc1ccc2nc3ccc(=O)cc-3oc2c1 [7-methoxyresorufin]
- Activity (CYP76B1 [1]; W(R) strain): 12.6 pkat mg-1 protein
- turnover of the dealkylation (CYP76B1 [1]; W(R) strain): 15 min⁻¹
- Activity (CYP76B1 [1]; WAT11 strain): 18.6 pkat mg-1 protein
- turnover of the dealkylation (CYP76B1 [1]; WAT11 strain): 41 min⁻¹
- Kcat (CYP76B1 [1]; [5]): 0.683 s⁻¹
- Km (CYP76B1 [1]; [5]): 0.17 µM
- Kcat (CYP76B1 [1]; coexpressed reductase ATR2): 0.717 s⁻¹
- Km (CYP76B1 [1]; coexpressed reductase ATR2): 0.185 µM
- Kcat (CYP76B1 [1]; [6]): 0.25 s⁻¹
- Km (CYP76B1 [1]; [6]): 0.23 µM

Compound: O=C1C[C@@H](c2ccc(O)cc2)Oc2cc(O)cc(O)c21 [naringenin]
- metabolite detection for endogenous molecules (CYP76B1 [1]): No metabolite

Compound: COc1cc(/C=C/C(=O)O)ccc1O [ferulate, ferulic acid]
- metabolite detection for endogenous molecules (CYP76B1 [1]): No metabolite

Compound: CCCCCCCCCCCCCC(=O)O [myristic, myristic acid]
- metabolite detection for endogenous molecules (CYP76B1 [1]): No metabolite

Compound: COc1cc2ccc(=O)oc2cc1O [scopoletin]
- metabolite detection for endogenous molecules (CYP76B1 [1]): No metabolite

Compound: COc1cc2oc(=O)ccc2cc1O [isoscopoletin]
- metabolite detection for endogenous molecules (CYP76B1 [1]): No metabolite

Compound: CCCCCCCC/C=C\CCCCCCCC(=O)O [oleic, oleic acid]
- metabolite detection for endogenous molecules (CYP76B1 [1]): No metabolite

Compound: CON(C)C(=O)Nc1ccc(Br)cc1 [Metobromuron]
- Kd (CYP76B1 [2]; [4]): 6.2 µM

Compound: COc1ccc2ccc(=O)oc2c1 [7-methoxycoumarin, 7-Methoxycoumarin]
- Activity (CYP76B1 [1]; W(R) strain): 10.9 pkat mg-1 protein
- turnover of the dealkylation (CYP76B1 [1]; W(R) strain): 13 min⁻¹
- Activity (CYP76B1 [1]; WAT11 strain): 16.4 pkat mg-1 protein
- turnover of the dealkylation (CYP76B1 [1]; WAT11 strain): 31 min⁻¹

Compound: CC/C=C\C/C=C\C/C=C\CCCCCCCC(=O)O [linolenic, linolenic acid]
- metabolite detection for endogenous molecules (CYP76B1 [1]): No metabolite

Compound: CC1=CC(=O)CC(C)(C)C1(O)/C=C/C(C)=C\C(=O)O (stereo not shown) [abcisic acid]
- metabolite detection for endogenous molecules (CYP76B1 [1]): No metabolite

Compound: C=C(CC[C@@H](C)[C@H]1CC[C@@]2(C)C3=C(CC[C@]12C)[C@@]1(C)CC[C@H](O)[C@@H](C)[C@@H]1CC3)C(C)C [obtusifoliol]
- metabolite detection for endogenous molecules (CYP76B1 [1]): No metabolite

Compound: CON(C)C(=O)Nc1ccc(Cl)cc1 [Monolinuron]
- Kd (CYP76B1 [2]): 4.8 µM
- conversion / dealkylation by CYP76B1 (CYP76B1 [1]): dealkylates

Compound: CC(C)c1ccc(NC(=O)N(C)C)cc1 [Isoproturon, N-(4-isopropylphenyl)-N′,N′-dimethylurea]
- Kd (CYP76B1 [2]): 55 µM
- ΔAmax × 10^−3 (CYP76B1 [2]; CYP76B1 60 nM): 8.2 × 10^−3
- Activity (CYP76B1 [1]; W(R) strain): 128 pkat mg-1 protein
- turnover of the dealkylation (CYP76B1 [1]; W(R) strain): 40 min⁻¹
- Activity (CYP76B1 [1]; WAT11 strain): 475 pkat mg-1 protein
- turnover of the dealkylation (CYP76B1 [1]; WAT11 strain): 147 min⁻¹
- Kcat (CYP76B1 [1]; [5]): 2.45 s⁻¹
- Kcat (CYP76B1 [1]; [6]): 0.667 s⁻¹

Compound: Cc1ccc2cc3c(ccc4ccccc43)c3c2c1CC3 [3-methylcholanthrene]
- induction of 7-methoxyresorufin O-dealkylase activity [3]: very strongly induced
